In general, Ki refers to the equilibrium dissociation constant of an inhibitor or competing ligand from its target.

What all share (format): biochemical
The target of one experiment is KAT5 (Homo sapiens (Human), UniProt Q92993). The experiment can be described thus: KAT assay (SAMDI mass spectrometry), KAT5.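 Further: Baculovirus-expressed KAT5 acetylating a histone H4 peptide at room temperature, read as percent conversion to product, Ki from a Morrison tight-binding competitive fit.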 As to conditions: read-out: KAT5 Ki at 1 μM AcCoA.
The next experiment has as its target KAT8 (Homo sapiens (Human), UniProt Q9H7Z6). The experiment is described as follows: KAT assay (SAMDI mass spectrometry), KAT8. As to conditions: read-out: KAT8 Ki at 1 μM AcCoA.
The target of a further experiment is KAT7 (Homo sapiens (Human), UniProt O95251). The experiment can be described thus: KAT assay (SAMDI mass spectrometry), KAT7.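 Further: Baculovirus-expressed enzyme acetylating a histone peptide at room temperature, percent conversion from product and substrate peak areas, Ki from a Morrison tight-binding competitive fit.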 The note with it: read-out: KAT7 Ki at 1 μM AcCoA.
The target of another experiment is KAT6A (Homo sapiens (Human), UniProt Q92794). The experiment can be described thus: KAT assay (SAMDI mass spectrometry), KAT6A.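 Further: Baculovirus-expressed KAT6A acetylating histone H3 (1-21) peptide (2 µM), 30-60 min at room temperature, % product conversion fitted to Morrison equation for tight-binding competitive inhibitors.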
The target of the next experiment is KAT6B (Homo sapiens (Human), UniProt Q8WYB5). The experiment can be described thus: KAT assay (SAMDI mass spectrometry), KAT6B.
Setting [1] is: read-out: KAT6a Ki at 1 μM AcCoA, 1 μM AcCoA.
[2] abbreviates: read-out: KAT6b Ki at 1 μM AcCoA, 1 μM AcCoA.
The mark [3] stands for this setting: read-out: KAT6a Ki at 10 μM AcCoA, 10 μM AcCoA.
Where [4] appears, read: 25 μM AcCoA, read-out: KAT6b Ki at 25 μM AcCoA.

Read-outs that look alike come from different tables or passages of the source.

Chain of KAT6A (Q92794 whole entry): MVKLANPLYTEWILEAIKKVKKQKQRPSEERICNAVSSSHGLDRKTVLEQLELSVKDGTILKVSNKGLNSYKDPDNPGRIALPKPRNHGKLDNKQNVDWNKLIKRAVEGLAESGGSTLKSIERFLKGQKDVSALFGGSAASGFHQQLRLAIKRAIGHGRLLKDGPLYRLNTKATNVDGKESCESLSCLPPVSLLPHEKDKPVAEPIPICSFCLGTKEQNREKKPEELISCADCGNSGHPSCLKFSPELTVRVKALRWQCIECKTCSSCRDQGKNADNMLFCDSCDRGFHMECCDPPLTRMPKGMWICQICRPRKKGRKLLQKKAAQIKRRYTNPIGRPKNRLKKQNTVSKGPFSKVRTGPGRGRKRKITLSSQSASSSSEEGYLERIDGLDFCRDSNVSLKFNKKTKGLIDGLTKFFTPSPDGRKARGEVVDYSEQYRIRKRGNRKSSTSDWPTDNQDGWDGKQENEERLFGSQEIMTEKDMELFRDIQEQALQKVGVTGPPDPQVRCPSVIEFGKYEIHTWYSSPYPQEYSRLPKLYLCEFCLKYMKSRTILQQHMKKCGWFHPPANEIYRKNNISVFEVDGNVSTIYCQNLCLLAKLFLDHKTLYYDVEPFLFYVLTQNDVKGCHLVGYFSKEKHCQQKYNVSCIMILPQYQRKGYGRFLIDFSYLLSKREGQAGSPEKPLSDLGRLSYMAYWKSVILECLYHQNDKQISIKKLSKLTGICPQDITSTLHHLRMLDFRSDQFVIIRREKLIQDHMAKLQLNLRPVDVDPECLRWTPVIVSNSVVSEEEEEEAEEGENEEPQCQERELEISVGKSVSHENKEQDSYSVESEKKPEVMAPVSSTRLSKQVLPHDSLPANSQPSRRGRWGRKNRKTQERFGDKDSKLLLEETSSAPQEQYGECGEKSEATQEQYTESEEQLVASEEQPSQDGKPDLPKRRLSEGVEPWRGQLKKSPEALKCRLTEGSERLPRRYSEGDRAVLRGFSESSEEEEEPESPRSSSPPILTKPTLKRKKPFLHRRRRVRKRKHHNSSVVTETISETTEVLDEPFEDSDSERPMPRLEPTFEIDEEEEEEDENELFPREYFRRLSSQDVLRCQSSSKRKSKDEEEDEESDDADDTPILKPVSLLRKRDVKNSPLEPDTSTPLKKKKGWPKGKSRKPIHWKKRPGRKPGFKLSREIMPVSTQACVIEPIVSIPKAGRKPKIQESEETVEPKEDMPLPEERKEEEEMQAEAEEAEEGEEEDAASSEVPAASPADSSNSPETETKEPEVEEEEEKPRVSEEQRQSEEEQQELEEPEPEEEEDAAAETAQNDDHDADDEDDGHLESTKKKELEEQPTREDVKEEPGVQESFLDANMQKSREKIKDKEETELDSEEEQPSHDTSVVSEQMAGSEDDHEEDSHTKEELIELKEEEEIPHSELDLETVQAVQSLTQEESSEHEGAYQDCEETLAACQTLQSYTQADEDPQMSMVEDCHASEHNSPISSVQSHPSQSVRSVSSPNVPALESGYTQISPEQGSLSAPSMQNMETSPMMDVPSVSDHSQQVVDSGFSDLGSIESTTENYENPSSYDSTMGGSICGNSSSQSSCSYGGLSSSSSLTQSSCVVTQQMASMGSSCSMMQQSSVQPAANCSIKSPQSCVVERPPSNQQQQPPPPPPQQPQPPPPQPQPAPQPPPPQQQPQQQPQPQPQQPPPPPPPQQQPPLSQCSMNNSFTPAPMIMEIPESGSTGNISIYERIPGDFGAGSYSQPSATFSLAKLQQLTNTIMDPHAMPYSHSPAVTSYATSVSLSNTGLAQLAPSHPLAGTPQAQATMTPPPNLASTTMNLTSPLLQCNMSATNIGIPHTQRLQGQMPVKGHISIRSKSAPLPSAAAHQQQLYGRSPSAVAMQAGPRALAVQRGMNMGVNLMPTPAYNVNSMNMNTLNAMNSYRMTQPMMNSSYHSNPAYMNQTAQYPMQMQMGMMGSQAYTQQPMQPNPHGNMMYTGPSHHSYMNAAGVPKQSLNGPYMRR
Chain of KAT5 (Q92993 whole entry): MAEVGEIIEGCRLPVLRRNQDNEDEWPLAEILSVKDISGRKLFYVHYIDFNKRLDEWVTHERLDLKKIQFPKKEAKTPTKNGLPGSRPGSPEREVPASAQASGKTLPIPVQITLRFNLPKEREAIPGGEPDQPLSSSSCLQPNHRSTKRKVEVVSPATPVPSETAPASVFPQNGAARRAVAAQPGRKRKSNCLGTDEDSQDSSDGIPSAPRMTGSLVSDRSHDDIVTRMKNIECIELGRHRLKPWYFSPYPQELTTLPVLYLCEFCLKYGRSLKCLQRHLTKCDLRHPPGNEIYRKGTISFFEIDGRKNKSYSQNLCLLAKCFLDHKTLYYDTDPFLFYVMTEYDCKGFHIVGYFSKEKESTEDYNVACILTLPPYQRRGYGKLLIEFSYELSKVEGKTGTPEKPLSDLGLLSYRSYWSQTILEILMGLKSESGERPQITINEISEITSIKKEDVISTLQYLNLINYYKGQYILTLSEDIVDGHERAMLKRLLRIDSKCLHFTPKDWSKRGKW
Chain of KAT6B (Q8WYB5 whole entry): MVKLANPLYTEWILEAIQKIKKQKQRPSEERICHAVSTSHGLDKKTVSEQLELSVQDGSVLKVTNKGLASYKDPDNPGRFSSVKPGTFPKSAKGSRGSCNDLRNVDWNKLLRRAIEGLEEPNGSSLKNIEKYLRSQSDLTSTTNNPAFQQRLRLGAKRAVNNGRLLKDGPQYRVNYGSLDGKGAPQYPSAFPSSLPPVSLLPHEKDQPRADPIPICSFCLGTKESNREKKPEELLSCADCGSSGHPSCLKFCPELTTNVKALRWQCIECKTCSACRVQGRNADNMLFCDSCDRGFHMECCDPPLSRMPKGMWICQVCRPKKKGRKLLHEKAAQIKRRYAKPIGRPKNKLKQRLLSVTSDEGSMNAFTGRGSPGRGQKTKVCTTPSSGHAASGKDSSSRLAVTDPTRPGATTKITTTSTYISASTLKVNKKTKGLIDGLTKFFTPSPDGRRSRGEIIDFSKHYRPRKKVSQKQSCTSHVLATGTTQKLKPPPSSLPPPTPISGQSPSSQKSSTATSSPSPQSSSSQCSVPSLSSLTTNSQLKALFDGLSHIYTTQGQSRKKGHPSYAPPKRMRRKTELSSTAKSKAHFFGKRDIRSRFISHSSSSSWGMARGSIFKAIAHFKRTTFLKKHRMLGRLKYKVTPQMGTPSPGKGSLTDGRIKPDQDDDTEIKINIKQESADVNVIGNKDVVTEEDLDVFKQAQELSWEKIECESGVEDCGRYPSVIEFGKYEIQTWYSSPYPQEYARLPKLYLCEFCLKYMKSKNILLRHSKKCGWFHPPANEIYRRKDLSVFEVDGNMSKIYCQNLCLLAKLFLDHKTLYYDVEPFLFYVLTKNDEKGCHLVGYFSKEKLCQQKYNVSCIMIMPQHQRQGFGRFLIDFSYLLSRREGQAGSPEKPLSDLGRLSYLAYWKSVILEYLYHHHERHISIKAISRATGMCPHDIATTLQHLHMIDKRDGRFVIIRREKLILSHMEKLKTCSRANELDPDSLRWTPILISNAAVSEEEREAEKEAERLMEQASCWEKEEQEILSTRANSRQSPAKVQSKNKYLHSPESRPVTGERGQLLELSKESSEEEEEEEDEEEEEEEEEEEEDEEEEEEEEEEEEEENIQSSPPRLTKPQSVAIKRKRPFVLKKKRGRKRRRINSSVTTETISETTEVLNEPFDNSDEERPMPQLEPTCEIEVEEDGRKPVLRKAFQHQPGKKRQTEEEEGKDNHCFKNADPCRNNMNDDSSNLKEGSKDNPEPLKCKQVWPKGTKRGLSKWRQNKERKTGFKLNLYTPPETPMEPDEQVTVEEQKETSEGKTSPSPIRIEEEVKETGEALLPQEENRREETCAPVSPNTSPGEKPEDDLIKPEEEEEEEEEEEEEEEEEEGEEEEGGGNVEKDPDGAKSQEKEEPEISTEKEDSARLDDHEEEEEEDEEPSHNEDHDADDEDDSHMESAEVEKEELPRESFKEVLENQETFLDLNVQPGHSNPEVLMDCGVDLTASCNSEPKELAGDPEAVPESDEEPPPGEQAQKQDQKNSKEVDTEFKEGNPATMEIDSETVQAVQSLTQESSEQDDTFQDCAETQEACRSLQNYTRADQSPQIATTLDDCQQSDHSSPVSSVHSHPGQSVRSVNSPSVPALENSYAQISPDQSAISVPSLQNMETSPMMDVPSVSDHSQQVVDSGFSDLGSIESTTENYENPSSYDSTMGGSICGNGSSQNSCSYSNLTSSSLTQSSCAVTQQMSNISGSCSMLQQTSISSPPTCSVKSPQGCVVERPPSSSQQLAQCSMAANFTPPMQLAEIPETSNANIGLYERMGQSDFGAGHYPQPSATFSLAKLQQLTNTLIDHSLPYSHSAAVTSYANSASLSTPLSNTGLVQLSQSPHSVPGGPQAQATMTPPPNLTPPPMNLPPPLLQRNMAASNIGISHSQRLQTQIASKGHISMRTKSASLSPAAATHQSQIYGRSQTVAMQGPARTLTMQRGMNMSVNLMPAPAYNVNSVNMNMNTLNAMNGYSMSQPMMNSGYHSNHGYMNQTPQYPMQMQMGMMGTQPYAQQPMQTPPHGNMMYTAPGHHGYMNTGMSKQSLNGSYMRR
Chain of KAT8 (Q9H7Z6 whole entry): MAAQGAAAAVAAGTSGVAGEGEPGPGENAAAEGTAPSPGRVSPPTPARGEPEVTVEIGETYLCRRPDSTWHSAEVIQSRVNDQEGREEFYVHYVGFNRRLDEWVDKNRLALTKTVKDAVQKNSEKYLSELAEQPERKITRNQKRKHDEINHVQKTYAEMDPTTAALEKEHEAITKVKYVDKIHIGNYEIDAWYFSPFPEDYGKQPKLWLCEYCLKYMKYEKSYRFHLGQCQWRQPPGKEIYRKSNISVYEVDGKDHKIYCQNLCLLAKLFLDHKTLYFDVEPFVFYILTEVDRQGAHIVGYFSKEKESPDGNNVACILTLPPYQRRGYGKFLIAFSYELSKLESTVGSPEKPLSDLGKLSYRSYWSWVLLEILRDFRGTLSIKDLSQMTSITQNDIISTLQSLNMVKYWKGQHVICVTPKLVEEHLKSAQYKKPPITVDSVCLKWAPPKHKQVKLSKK
Description for KAT5: (§1) Prepare 10 mM stock solutions in 100% DMSO from solid material • 2. Serial dilute 10 mM, 1 mM or 0.1 mM compound stocks 3-fold in 100% DMSO for 11-point dose response
(§2) Prepare 1× assay buffer containing 10 mM Tris HCL pH 8.0, 2.5 mM NaCl, 0.5 mM EDTA, 0.005% BSG and 0.02% Tween-20 • 2. Dilute Histone peptide (CPC Scientific) and AcCoA (Sigma) together in assay buffer to 2×. • 3. Dilute KAT enzyme in assay buffer to 2×.
(§3) Enzyme reaction • 1. Final reaction conditions for each KAT assay in a 20 ul assay reaction volume: • i. KAT5 25 nM, 1 uM AcCoA, 2 uM H4 1-21 peptide, 30-minute reaction • ii. KAT6A 15 nM, 1 uM AcCoA, 2 uM H3 1-21 peptide, 45-minute reaction • iii. KAT6B 25 nM, 1 uM AcCoA, 2 uM H3 1-21 peptide, 60-minute reaction • iv. KAT7 12.5 nM, 1 uM AcCoA, 2 uM H3 1-21 peptide, 45-minute reaction • v. KAT8 15 nM, 1 uM AcCoA, 2 uM H3 1-21 peptide, 45-minute reaction • 2. Add 0.5 ul of diluted compound to the assay plate (384-well V-bottom polypropylene plates) or 0.5 ul of DMSO for control wells. • 3. Add 10 ul of 2× Histone peptide/2×AcCoA mix to the assay plate. • 4. Add 10 ul of 2× enzyme to the assay plate. • 5. Stop the reaction after the indicated time with the addition of 2 ul of 5% formic acid • 6. Each reaction was analyzed using self-assembled monolayer desorption/ionization time-of-flight mass spectrometry (Mrksich, Milan (2008) Mass Spectrometry of Self-Assembled Monolayers: A New Tool for Molecular Surface Science ACS Nano 2008 2 (1), 7-18; SAMDI Tech, Inc. (Chicago, Ill.)). • 7. Area under the curve (AUC) for both substrate and product peaks was determined for KAT5 at M.W. 2561 [Substrate+H]^+ and 2603 [Product+H]^+ with a +/−1 Da tolerance, respectively • 8. Area under the curve (AUC) for both substrate and product peaks was determined for KAT6a, KAT6B, KAT7 and KAT8 at M.W. 2723 [Substrate+H]^+ and 2765 [Product+H]^+ with a +/−1 Da tolerance, respectively. […] Percent conversion to product was calculated by: AUCProduct/(AUCsubstrate+AUCProduct).
(§4) IC50 values were determined by fitting the % conversion at each inhibitor concentration to the 4-parameter IC50 equation using Pfizer proprietary curve fitting software. • 2. Ki values were determined by fitting the % conversion at each inhibitor concentration to the Morrison equation for tightbinding competitive inhibitors using Pfizer proprietary curve fitting software.
(§5) KAT enzymes were expressed using a baculovirus expression system and purified at Pfizer, La Jolla. […] Acetyl coenzyme A was purchased from Sigma-Aldrich (St. Louis, Mo.). All other biochemical reagents were purchased from Sigma-Aldrich or ThermoFisher Scientific (Waltham, Mass.).
(§6) KAT assays were performed at room temperature in assay buffer containing 1 μM AcCoA, 2 μM histone peptide, 10 mM Tris HCL pH 8.0, 2.5 mM NaCl, 0.5 mM EDTA, 0.005% BSG and 0.02% Tween-20. 10 ul of 2× Histone peptide/AcCoA mix was added to a 384-well V-bottom polypropylene assay plate containing 0.5 ul of serially diluted test compound in 100% dimethyl sulfoxide (DMSO). To start the reaction, 10 ul of 2× enzyme solution was added to the assay plate. KAT assays were terminated after 30-60 minutes with the addition of 2 ul of 5% formic acid. All assays used histone H3 (1-21) peptide except for the KAT5 assay which used histone H4 (1-21) peptide. The final enzyme concentration for each KAT was as follows: KAT5, 25 nM; KAT6A, 15 nM; KAT6B, 25 nM; KAT7, 12.5 nM; KAT8 15 nM. Each reaction was analyzed using self-assembled monolayer desorption/ionization time-of-flight mass spectrometry (Mrksich, Milan (2008) Mass Spectrometry of Self-Assembled Monolayers: A New Tool for Molecular Surface Science ACS Nano 2008 2 (1), 7-18; SAMDI Tech, Inc. (Chicago, Ill.)).
(§7) Area under the curve (AUC) for both substrate and product peaks was determined for KAT5 at M.W. 2561 [Substrate+H]^+ and 2603 [Product+H]^+ with a +/−1 Da tolerance, respectively.
Description for KAT6A: as §1, §2, §3, §4, §5, §6, §7
Description for KAT6B: as §1, §2, §3, §4, §5, §6, §7
Description for KAT8: as §1, §2, §3, §4, §5, §6, §7

In the case of `COc1cccc(OC)c1S(=O)(=O)Nc1noc2cc(Cn3cc(F)cn3)cc(OC)c12` [Example 7], the Ki on KAT5 is 4530 nM; at KAT8 it was 4460 nM; at KAT7, 230 nM; at KAT6A (setting [1]) it was 21 nM; on KAT6B (setting [2]), 28.3 nM.
With `COc1cccc(OC)c1S(=O)(=O)Nc1noc2cc(Cn3cccn3)cc(OC3CC3)c12` [Example 11], the Ki stood at 12500 nM on KAT5; 3260 nM at KAT8; 5960 nM at KAT7; 2.86 nM at KAT6A (setting [1]); 5.57 nM on KAT6A (setting [3]); 14.6 nM at KAT6B (setting [2]).
Turning to `COc1cccc(OC)c1S(=O)(=O)Nc1noc2cc(Cn3nccn3)cc(OC)c12` [Example 23], the inhibition constant Ki at KAT5 came out at 2070 nM; on KAT8, 1970 nM; on KAT7, 40 nM; at KAT6A (setting [1]), 1.22 nM; on KAT6A (setting [3]) it was 1.24 nM; on KAT6B (setting [4]), 1.34 nM. In addition, the Ki on KAT6B (setting [2]) amounted to 0.87 nM.
As to `COc1cc(Cn2cccn2)cc2onc(NS(=O)(=O)c3ccc(C)cc3F)c12` [Example 65], the Ki on KAT5 stood at 3060 nM; on KAT8, 12500 nM; on KAT7, 220 nM; at KAT6A (setting [1]) it was 6.04 nM; at KAT6A (setting [3]) it was 4.44 nM; on KAT6B (setting [4]), 12.1 nM.
As to `COc1cc(Br)cc(OC)c1S(=O)(=O)Nc1noc2cc(Cn3cccn3)cc(OC)c12` [Example 8], the Ki at KAT5 is 1710 nM; at KAT8, 2870 nM; on KAT7 it was 60 nM; at KAT6A (setting [1]) it was 1.54 nM; on KAT6A (setting [3]), 3.23 nM; on KAT6B (setting [4]) it was 6.63 nM. The inhibition constant (Ki) on KAT6B (setting [2]) was found to be 5.74 nM.
Consider `COc1cc(Cn2cccn2)cc2onc(NS(=O)(=O)c3ccc(C(F)F)cc3)c12` [Example 77], for which the inhibition constant (Ki) on KAT5 came to 8450 nM; on KAT8 it was 12500 nM; at KAT7 it was 460 nM; at KAT6A (setting [1]), 8.56 nM; at KAT6A (setting [3]), 11.9 nM; on KAT6B (setting [4]), 29.6 nM.
With `COc1cc(Cn2cccn2)cc2onc(NS(=O)(=O)c3cccc(C)c3C#N)c12` [Example 76], the Ki at KAT5 amounted to 4380 nM; at KAT8, 12500 nM; on KAT7 it was 330 nM; at KAT6A (setting [1]), 7.89 nM; on KAT6A (setting [3]), 3.62 nM; on KAT6B (setting [4]), 60.1 nM.
As to `COc1cc(C)ccc1S(=O)(=O)Nc1noc2cc(Cn3cccn3)cc(OC)c12` [Example 47], the Ki was found to be 180 nM on KAT5; 560 nM at KAT8; 40 nM on KAT7; 1.14 nM at KAT6A (setting [1]); 0.49 nM at KAT6A (setting [3]); 1.32 nM on KAT6B (setting [4]).
Regarding `COc1cc(OC)c(S(=O)(=O)Nc2noc3cc(Cn4cccn4)cc(OC4CC4)c23)c(OC)c1` [Example 26], the inhibition constant Ki stood at 125000 nM on KAT5; 27100 nM at KAT8; 7790 nM at KAT7; 8.01 nM on KAT6A (setting [1]); 3.16 nM on KAT6A (setting [3]); 12.7 nM on KAT6B (setting [4]).
`COc1cccc(OC)c1S(=O)(=O)Nc1noc2cc(Cn3cccn3)ccc12` [Example 28]: the Ki was 3050 nM on KAT5; 3260 nM at KAT8; 450 nM at KAT7; 4.4 nM on KAT6A (setting [1]); 5.06 nM at KAT6B (setting [4]).
As to `COc1cccc(OC)c1S(=O)(=O)Nc1noc2cc(Cn3cc(CO)cn3)cc(OC)c12` [Example 87, N-(6-{[4-(hydroxymethyl)-1H-pyrazol-1-yl]methyl}-4-methoxy-1,2-benzoxazol-3-yl)-2,6-dimethoxybenzene-1-sulfonamide], the Ki at KAT5 was found to be 10800 nM; on KAT8, 17900 nM; on KAT7 it was 1840 nM; on KAT6A (setting [1]) it was 38.6 nM; at KAT6B (setting [2]), 133 nM.
Turning to `CCc1cc(S(=O)(=O)Nc2noc3cc(Cn4cccn4)cc(OC)c23)c(OC)cc1OC` [Example 15], the Ki was determined as 70 nM at KAT5; 170 nM on KAT8; 30 nM at KAT7; 0.65 nM at KAT6A (setting [1]); 0.35 nM at KAT6A (setting [3]); 0.6 nM on KAT6B (setting [4]).
In the case of `CCOc1cc(C)ccc1S(=O)(=O)Nc1noc2cc(Cn3cccn3)cc(OC)c12` [Example 50], the Ki on KAT5 was found to be 260 nM; on KAT8, 350 nM; on KAT7, 20 nM; on KAT6A (setting [1]), 0.46 nM; at KAT6A (setting [3]), 0.4 nM; on KAT6B (setting [4]), 0.98 nM.
As to `COc1cccc(F)c1S(=O)(=O)Nc1noc2cc(Cn3cccn3)cc(OC)c12` [Example 6], the Ki at KAT5 was found to be 980 nM; on KAT8 it was 3320 nM; on KAT7, 120 nM; on KAT6A (setting [1]) it was 1.5 nM; on KAT6A (setting [3]), 2.32 nM; on KAT6B (setting [2]), 2.5 nM.
As to `COc1cc(Cn2cccn2)cc2onc(NS(=O)(=O)c3c(C)ccc4cccnc34)c12` [Example 73], the Ki came to 710 nM on KAT5; 3260 nM on KAT8; 250 nM on KAT7; 2.31 nM on KAT6A (setting [1]); 1.7 nM at KAT6A (setting [3]); 1.36 nM on KAT6B (setting [4]).
Consider `COc1ccc(OC(F)(F)F)cc1S(=O)(=O)Nc1noc2cc(Cn3cccn3)cc(OC)c12` [Example 16], for which the Ki at KAT5 stood at 830 nM; at KAT8, 1750 nM; at KAT7, 120 nM; at KAT6A (setting [1]) it was 1.27 nM; on KAT6A (setting [3]) it was 0.64 nM; on KAT6B (setting [4]), 1.73 nM.
For `COc1cccc(OC)c1S(=O)(=O)Nc1noc2cc(Cn3cccn3)cc(OC(C)C)c12` [Example 10], the inhibition constant (Ki) on KAT5 worked out at 60200 nM; on KAT8, 19400 nM; at KAT7 it was 9320 nM; on KAT6A (setting [1]), 2.72 nM; at KAT6A (setting [3]), 4.65 nM; at KAT6B (setting [2]) it was 2.27 nM.
As to `CCOc1cc(Cn2cccn2)cc2onc(NS(=O)(=O)c3c(OC)cccc3OC)c12` [Example 25], the inhibition constant (Ki) amounted to 12500 nM on KAT5; 12500 nM at KAT8; 1080 nM at KAT7; 2.74 nM on KAT6A (setting [1]); 1.83 nM at KAT6A (setting [3]); 4.46 nM at KAT6B (setting [4]).
In the case of `COc1ccc(OC)c(S(=O)(=O)Nc2noc3cc(Cn4cccn4)cc(OC)c23)c1` [Example 19], the Ki at KAT5 amounted to 800 nM; at KAT8, 960 nM; on KAT7, 150 nM; at KAT6A (setting [1]), 2.18 nM; at KAT6B (setting [4]), 3.44 nM.
Turning to `COc1cccc(OC)c1S(=O)(=O)Nc1noc2cc(Cn3cccn3)c(C)cc12` [Example 27], the Ki worked out at 220 nM at KAT5; 530 nM on KAT8; 50 nM at KAT7; 1.17 nM at KAT6A (setting [1]); 0.68 nM at KAT6A (setting [3]); 2.39 nM at KAT6B (setting [4]).
Consider `COc1ccc(C(C)C)cc1S(=O)(=O)Nc1noc2cc(Cn3cccn3)cc(OC)c12` [Example 18], for which the inhibitory constant (Ki) came out at 130 nM on KAT5; 100 nM at KAT8; 120 nM at KAT7; 0.83 nM at KAT6A (setting [1]); 0.38 nM on KAT6A (setting [3]); 0.96 nM on KAT6B (setting [4]).
With `COc1cc2c(cc1S(=O)(=O)Nc1noc3cc(Cn4cccn4)cc(OC)c13)CCC2` [Example 29], the Ki on KAT5 is 180 nM; at KAT8, 1010 nM; at KAT7, 60 nM; on KAT6A (setting [1]) it was 0.53 nM; on KAT6B (setting [4]), 1.4 nM.
As to `COc1cc(Cn2cccn2)cc2onc(NS(=O)(=O)c3cc(C)c(F)c(C)c3)c12` [Example 78], the Ki was determined as 9920 nM on KAT5; 12500 nM at KAT8; 540 nM at KAT7; 5.64 nM on KAT6A (setting [1]); 5.73 nM on KAT6A (setting [3]); 26 nM at KAT6B (setting [4]).
In the case of `COCc1ccc(OC)c(S(=O)(=O)Nc2noc3cc(Cn4cccn4)cc(OC)c23)c1` [Example 12], the Ki on KAT5 came out at 1170 nM; on KAT8, 1070 nM; at KAT7, 920 nM; on KAT6A (setting [1]), 1.82 nM; at KAT6A (setting [3]) it was 1.7 nM; at KAT6B (setting [4]) it was 2.14 nM. Further, the Ki at KAT6B (setting [2]) was found to be 1.88 nM.
As to `COc1cc(Cl)ccc1S(=O)(=O)Nc1noc2cc(Cn3cccn3)cc(OC)c12` [Example 71], the inhibitory constant (Ki) on KAT5 is 320 nM; at KAT8, 1440 nM; on KAT7, 30 nM; at KAT6A (setting [1]), 1.18 nM; at KAT6A (setting [3]), 1.17 nM; on KAT6B (setting [4]), 2.81 nM.
On to `COc1ccc(S(=O)(=O)Nc2noc3cc(Cn4cccn4)cc(OC)c23)c(OC)c1` [Example 5], for which the Ki at KAT5 worked out at 530 nM; at KAT8, 660 nM; at KAT7 it was 80 nM; on KAT6A (setting [1]), 1.11 nM; on KAT6A (setting [3]), 1.38 nM; at KAT6B (setting [2]) it was 2.68 nM.
Take `COc1ccc(C2CC2)cc1S(=O)(=O)Nc1noc2cc(Cn3cccn3)cc(OC)c12` [Example 97, 5-cyclopropyl-2-methoxy-N-{4-methoxy-6-[(1H-pyrazol-1-yl)methyl]-1,2-benzoxazol-3-yl}benzene-1-sulfonamide]: the inhibitory constant (Ki) is 1030 nM at KAT5; 1510 nM at KAT8; 120 nM on KAT7; 1.1 nM on KAT6A (setting [1]); 2.74 nM at KAT6B (setting [4]).
On to `COc1ccc2c(c1S(=O)(=O)Nc1noc3cc(Cn4cccn4)cc(OC)c13)CCCC2` [Example 21], for which the Ki came to 1030 nM at KAT5; 830 nM on KAT8; 120 nM on KAT7; 1.23 nM at KAT6A (setting [1]); 1.14 nM on KAT6B (setting [4]).
For `COc1cc(Cn2cccn2)cc2onc(NS(=O)(=O)c3cc(C)cc(F)c3)c12` [Example 75], the inhibition constant (Ki) on KAT5 is 5700 nM; on KAT8 it was 12500 nM; on KAT7 it was 320 nM; at KAT6A (setting [1]) it was 9.13 nM; at KAT6A (setting [3]), 6.42 nM; on KAT6B (setting [4]), 13.8 nM.

Values taken from patent US11492346B2, “Benzisoxazole sulfonamide derivatives” (Pfizer Inc., priority 2019, dated 2022).
